System: MCF7, T47D, and MDA-MB-231 cells
Experiment: Spheroid formation in ultra-low attachment plates, live cell count
Type: cell-based
Details: 0-3 μM, 5 days
Method: FIG. 6: IODVA1 inhibits cell-substratum and cell-cell interactions. (A) IODVA1 impedes spreading of MCF7 and MDA-MB-231 cells on fibronectin. MCF7, T47D, and MDA-MB-231 cells were incubated on fibronectin coated coverslips for 10 min, then further incubated with the indicated concentrations of IODVA1 for 30 min in serum-free media, fixed and observed by bright field microscopy. Areas of single cells were calculated from 6 random fields (no less than 300 cells total per treatment group). Results shown are mean±s.e.m. of a single experiment and are representative of three independent experiments. (B) Effects of IODVA1 treatment on spheroid formation in MCF10A, MCF7, T47D, and MDA-MB-231 cells. […] Aggregates and spheroids were dissociated with accutase and trituration, and the number of live cells was determined by trypan blue exclusion. […]
For the spheroid formation in the ultra-low attachment plates, MCF7, T47D, and MDA-MB-231 (5,000 cells) were incubated in complete media with IODVA1 at 0-3 μM for 5 days. Aggregates and spheroids were dissociated with Accutase and live cells were counted using trypan blue exclusion.
Spheroids were formed by the hanging drop method or using ultra-low attachment (ULA) plates (Corning). […] Spheroid formation was monitored daily and imaged using EVOS microscope (Life Technologies). […]

Structure (SMILES): OC1(c2ccccn2)N=C(Nc2nc3ccccc3[nH]2)N=C1c1ccccn1 (stereo not shown) [IODVA1, (Z)-2-((1H-benzo[d]imidazol-2-yl)imino)-4,5-di(pyridin-2-yl)-2,5-dihydro-1H-imidazol-5-ol]
- number of live cells in a spheroid: significantly decreased
